Source: patent US5840732A, “Imidazopyridine or imidazopyrimidine compounds, their production and use” (Takeda Chemical Industries Ltd., priority 1994, dated 1998)

How the values were obtained:
[1] = tested on: ICAM-1 expression in human umbilical cord vascular endothelial cells; assay: Inhibitory activity of adhesion molecule expression (ICAM-1, cell-ELISA); assay type: cell-based; conditions: TNFα 1 ng/ml, 37° C., 5 hours
Method: (§1) Inhibitory activity of adhesion molecule expression
(§2) Test method: To human umbilical cord vascular endothelial cells (purchased from Kurabo), cultured on gelatin-coated plates, compounds at various concentrations (test compounds) were added, followed by incubation at 37° C. for 15 minutes. Human tumor necrosis factor (TNFα, purchased from Genzyme) was then added to a final concentration of 1 ng/ml, followed by incubation at 37° C. for 3 hours for ELAM-1 expression or for 5 hours for ICAM-1 expression. After the reaction, cells were fixed with glutaraldehyde; the amounts of ELAM-1 and ICAM-1 expressed were determined by cell-ELISA. Anti-ELAM-1 antibody BBA-2 and an anti-ICAM-1 antibody BBA-4 were used as the first antibodies for the defection of ELAM-1 and ICAM-1, respectively, and horse radish peroxidase-labeled rabbit anti-mouse IgG antibody was used as the second antibody to determine the amount of adhesion molecules expressed on cells observed. The compound concentration at which 50% expression was expressed as the 50% inhibitory concentration (IC50), with the amount of expression in the absence of compounds as 100 and the amount of expression in the absence of TNFα as 0.

[2] = tested on: ELAM-1 expression in human umbilical cord vascular endothelial cells; assay: Inhibitory activity of adhesion molecule expression (ELAM-1, cell-ELISA); assay type: cell-based; conditions: TNFα 1 ng/ml, 37° C., 3 hours
Method: as §1, §2

[3] = tested on: Wistar fatty rats (rat model of hereditary obese diabetes mellitus); assay: Diabetic nephritis improving action in Wistar fatty rats; assay type: in vivo, rat (male Wistar fatty); conditions: 50 mg/kg/day oral, 12 weeks, n=6, mean ± standard deviation; for Urinary Albumin: control 35.69 ± 15.44 (for 2), 24.53 ± 7.19 (for 3); for Urinary Total Protein: control 145.19 ± 34.99 (for 2), 131.53 ± 22.81 (for 3), both p < 0.05 vs control; for Plasma Glucose: control 352.00 ± 36.09 (for 2), 368.83 ± 24.35 (for 3), 3: p < 0.05 vs control
Method: Diabetic nephritis improving action in Wistar fatty rats (rat model of hereditary obese diabetes mellitus)
Test method: Male Wistar fatty rats at 9 weeks of age were divided into two groups according to plasma glucose level, urinary total protein excretion and body weight: a control group and a test compound group (n=6). The test compound, in suspension in 0.5% methyl cellulose (Wako Pure Chemical) at 2 ml/kg, was orally administered by gavage once a day for 12 consecutive weeks. For the control group, only the 0.5% methyl cellulose suspension was orally administered in the same manner as the test compounds. At every 3 weeks, plasma glucose, urinary total protein and albumin excretion were quantitated by the enzyme method, the Lowry method (Journal of Biological Chemistry, Vol. 193, pp. 265-275 (1951)] and the method of Mohamed et al. [Journal of Immunology Methods, Vol. 74, pp. 17-22 (1984)], respectively.

[4] = tested on: mouse skin allograft; assay: Immunosuppressive action on mouse skin allograft; assay type: in vivo, mouse (BIOBR donors, C57BL/10 recipients); conditions: 16 days
Method: Immunosuppressive action on mouse skin allograft
Test method: Male BIOBR mice and C57BL/10 mice, both at 6 weeks of age, were used as donors and recipients, respectively, and Grafts were prepared by killing donors by cervical vertebral dislocation, collecting full-thickness skin grafts from tail using a razor and tweezers, and cutting them into about 5 mm square pieces. Each graft was kept standing on gauze soaked with physiological saline, and used as soon as the recipient was prepared. Transplantation beds were prepared as follows. The recipient's back was clipped using clippers and sterilized with Isodine. Under ether anesthesia, back skin was picked up with tweezers, and a full-thickness skin graft was cut out into an about 5 mm square piece using scissors. The graft was transferred to the transplantation bed thus prepared, and fixed firmly using bandage. At 7 days after surgery, the bandage was removed, and the mice were observed every day to determine the day of complete necrosis of the graft as the rejection day. The compound was intraperitoneally administered in suspension in 5% gum arabic for 16 days after surgery.

Structure (SMILES) | IC50 [1] | IC50 [2] | Urinary Albumin [3] | Urinary Total Protein [3] | Plasma Glucose [3] | Mean Rejection Day ([4]; 50 mg/kg/day intraperitoneal, control 13.0) | Mean Rejection Day ([4]; 10 mg/kg/day intraperitoneal, control 13.5)
CCCC=C1SC(=O)N(CCCCSc2cccc3nccn23)C1=O [compound 2] | 3 µM | 2.9 µM | 20.49 ± 6.95 mg/day | 96.64 ± 18.31 mg/day | 333.67 ± 46.41 mg/dL | – | –
CCCC=C1SC(=O)N(CCCCCc2cccc3nccn23)C1=O [compound 3] | 4.2 µM | 5 µM | 22.34 ± 7.24 mg/day | 97.61 ± 16.26 mg/day | 253.17 ± 34.14 mg/dL | – | –
CCCC=C1SC(=O)N(CCCCOc2cccn3ccnc23)C1=O [compound 22] | 4.6 µM | 2.9 µM | – | – | – | 18.8 days | –
O=c1c(-c2ccccc2)c2n(c(=O)n1CCCCSc1cccc3nccn13)CCCS2(=O)=O [compound 24] | 1.1 µM | 0.8 µM | – | – | – | – | 27.0 days
O=C1SC(=CCCc2ccccc2Cl)C(=O)N1CCCCSc1cccc2nccn12 [compound 84] | 3.6 µM | 4.1 µM | – | – | – | – | –
O=C1SC(=CCCc2ccc(Cl)cc2)C(=O)N1CCCCSc1cccc2nccn12 [compound 85] | 3.9 µM | 4.3 µM | – | – | – | – | –
